Assay results published in patent US11572590B2, “Methods for evaluating tumor cell spheroids using 3D microfluidic cell culture device” (Dana-Farber Cancer Institute, Inc., priority 2017, dated 2023).
Read-outs that look alike come from different tables or passages of the source.

What was measured:
Experiment in all cases: SelectScreen Kinase Profiling, single point inhibition and IC50 for off-target kinases
Type in all cases: biochemical
[1] = target: T1, off-target kinases (Homo sapiens, UniProt Q04771); details: ACVR1 (ALK2), LanthaScreen Binding
T1 sequence (Q04771 21-509): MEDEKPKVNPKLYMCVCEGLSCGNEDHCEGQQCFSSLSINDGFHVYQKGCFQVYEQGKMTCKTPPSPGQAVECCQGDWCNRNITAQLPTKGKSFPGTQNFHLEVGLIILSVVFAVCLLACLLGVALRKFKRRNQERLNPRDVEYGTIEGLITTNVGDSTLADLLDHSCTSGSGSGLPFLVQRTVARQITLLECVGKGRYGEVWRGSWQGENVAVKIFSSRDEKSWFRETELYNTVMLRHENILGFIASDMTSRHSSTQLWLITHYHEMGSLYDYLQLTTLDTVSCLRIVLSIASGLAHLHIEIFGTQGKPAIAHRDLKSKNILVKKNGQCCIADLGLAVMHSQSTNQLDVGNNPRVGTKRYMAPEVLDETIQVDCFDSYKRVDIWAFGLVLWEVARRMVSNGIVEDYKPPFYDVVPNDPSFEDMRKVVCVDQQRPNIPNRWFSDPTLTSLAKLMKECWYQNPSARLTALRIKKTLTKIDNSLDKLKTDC

[2] = target: off-target kinases (Homo sapiens, UniProt P42356); details: PI4KA (PI4K alpha), Adapta, ATP 10
[3] = target: T2, off-target kinases (Homo sapiens, UniProt Q96PY6); details: NEK1, ATP Km app, ZLYTE
T2 sequence (Q96PY6 1-1258): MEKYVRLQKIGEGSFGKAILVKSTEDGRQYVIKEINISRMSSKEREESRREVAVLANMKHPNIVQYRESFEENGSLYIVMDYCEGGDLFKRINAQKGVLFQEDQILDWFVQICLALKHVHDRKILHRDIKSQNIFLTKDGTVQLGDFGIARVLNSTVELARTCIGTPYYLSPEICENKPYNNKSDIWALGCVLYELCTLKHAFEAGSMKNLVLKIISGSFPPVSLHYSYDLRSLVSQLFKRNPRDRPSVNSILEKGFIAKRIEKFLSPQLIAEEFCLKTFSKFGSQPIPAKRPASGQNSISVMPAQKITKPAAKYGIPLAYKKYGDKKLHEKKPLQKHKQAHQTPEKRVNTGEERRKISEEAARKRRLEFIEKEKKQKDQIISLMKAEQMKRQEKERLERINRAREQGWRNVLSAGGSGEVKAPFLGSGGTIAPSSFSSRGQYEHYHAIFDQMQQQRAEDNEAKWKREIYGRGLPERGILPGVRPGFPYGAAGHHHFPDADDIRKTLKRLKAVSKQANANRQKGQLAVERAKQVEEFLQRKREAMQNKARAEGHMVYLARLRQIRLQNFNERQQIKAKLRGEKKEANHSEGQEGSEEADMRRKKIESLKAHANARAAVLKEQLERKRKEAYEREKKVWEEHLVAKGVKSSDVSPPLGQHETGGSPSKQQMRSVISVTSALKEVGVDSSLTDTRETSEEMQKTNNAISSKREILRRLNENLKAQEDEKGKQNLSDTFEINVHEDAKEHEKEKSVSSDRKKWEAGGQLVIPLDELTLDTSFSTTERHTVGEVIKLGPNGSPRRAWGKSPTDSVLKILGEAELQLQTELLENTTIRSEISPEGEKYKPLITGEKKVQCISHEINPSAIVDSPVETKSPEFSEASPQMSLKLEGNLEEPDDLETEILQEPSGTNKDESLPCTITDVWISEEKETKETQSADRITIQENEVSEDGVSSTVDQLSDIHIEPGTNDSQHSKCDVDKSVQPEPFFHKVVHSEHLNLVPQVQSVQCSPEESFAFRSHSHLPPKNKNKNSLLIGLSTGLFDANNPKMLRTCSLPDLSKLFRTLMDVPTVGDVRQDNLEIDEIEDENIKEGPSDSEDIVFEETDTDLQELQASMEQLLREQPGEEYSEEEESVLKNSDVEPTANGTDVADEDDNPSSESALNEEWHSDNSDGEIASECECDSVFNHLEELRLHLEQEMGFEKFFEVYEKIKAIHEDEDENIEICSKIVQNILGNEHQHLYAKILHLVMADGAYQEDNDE

off-target kinases (Homo sapiens, UniProt P42356), sequence (P42356 whole entry): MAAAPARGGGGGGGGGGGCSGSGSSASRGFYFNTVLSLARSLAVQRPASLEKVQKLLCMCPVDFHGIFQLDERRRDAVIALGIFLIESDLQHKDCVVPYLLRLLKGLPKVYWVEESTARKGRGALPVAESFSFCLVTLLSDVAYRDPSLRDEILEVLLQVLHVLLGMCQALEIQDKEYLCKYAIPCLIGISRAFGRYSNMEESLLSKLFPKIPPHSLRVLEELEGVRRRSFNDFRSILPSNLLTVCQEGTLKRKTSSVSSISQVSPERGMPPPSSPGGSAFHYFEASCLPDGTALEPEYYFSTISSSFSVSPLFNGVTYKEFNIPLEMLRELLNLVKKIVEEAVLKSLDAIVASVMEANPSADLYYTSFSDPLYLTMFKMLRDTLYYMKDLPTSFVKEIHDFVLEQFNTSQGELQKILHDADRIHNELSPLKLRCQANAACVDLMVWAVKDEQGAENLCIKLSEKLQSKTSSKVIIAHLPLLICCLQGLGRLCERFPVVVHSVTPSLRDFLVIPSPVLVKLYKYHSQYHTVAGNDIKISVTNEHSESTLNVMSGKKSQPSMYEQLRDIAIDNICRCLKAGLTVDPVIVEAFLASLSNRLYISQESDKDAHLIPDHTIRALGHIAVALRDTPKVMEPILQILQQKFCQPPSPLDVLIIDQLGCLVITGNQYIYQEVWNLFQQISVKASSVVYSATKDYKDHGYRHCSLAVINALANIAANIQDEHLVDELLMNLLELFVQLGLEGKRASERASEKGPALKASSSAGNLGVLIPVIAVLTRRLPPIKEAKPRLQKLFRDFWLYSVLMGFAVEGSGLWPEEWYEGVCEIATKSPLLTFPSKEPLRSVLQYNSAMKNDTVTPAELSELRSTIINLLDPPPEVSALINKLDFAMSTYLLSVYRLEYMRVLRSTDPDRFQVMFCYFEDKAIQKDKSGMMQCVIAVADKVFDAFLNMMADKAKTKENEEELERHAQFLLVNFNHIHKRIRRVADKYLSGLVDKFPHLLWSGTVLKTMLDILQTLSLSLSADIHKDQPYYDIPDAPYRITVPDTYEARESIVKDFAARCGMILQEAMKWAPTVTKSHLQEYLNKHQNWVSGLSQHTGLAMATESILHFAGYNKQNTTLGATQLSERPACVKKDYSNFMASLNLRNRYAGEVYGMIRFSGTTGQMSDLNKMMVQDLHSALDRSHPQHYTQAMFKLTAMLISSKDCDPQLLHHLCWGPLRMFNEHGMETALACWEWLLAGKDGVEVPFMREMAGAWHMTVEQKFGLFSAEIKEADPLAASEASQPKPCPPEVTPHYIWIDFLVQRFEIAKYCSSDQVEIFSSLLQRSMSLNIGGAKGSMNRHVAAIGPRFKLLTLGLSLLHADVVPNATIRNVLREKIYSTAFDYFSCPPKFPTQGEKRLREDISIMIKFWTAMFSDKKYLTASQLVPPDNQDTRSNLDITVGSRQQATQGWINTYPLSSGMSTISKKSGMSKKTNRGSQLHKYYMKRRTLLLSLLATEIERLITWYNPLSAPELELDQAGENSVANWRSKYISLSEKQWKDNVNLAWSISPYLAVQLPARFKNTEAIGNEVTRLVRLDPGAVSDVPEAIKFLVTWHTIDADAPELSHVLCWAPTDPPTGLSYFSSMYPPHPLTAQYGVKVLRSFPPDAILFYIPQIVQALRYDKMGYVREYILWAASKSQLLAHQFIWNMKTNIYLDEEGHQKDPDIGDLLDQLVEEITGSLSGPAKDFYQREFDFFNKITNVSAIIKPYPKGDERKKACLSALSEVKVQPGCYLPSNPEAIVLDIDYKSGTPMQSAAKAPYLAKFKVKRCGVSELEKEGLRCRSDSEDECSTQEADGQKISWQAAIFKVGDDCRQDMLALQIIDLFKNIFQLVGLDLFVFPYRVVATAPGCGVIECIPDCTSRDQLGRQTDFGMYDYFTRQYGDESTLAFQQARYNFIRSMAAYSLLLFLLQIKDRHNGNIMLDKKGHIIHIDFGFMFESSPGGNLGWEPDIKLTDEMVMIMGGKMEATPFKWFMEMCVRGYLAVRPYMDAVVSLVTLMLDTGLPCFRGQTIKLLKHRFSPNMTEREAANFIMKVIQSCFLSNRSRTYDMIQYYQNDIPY

N#Cc1cc(-c2ncnc(Nc3ccc(N4CCN(C5COC5)CC4)cc3)n2)ccc1OC1CCOCC1 [Compound 1, 5-(4-((4-(4-(oxetan-3-yl)piperazin-1-yl)phenyl)amino)-1,3,5-triazin-2-yl)-2-((tetrahydro-2H-pyran-4-yl)oxy)benzonitrile]
inhibition ([1]; read-out: % Inhibition 1): 85%
inhibition ([1]; read-out: % Inhibition 2): 84%
inhibition ([1]; read-out: % Inhibition Avg): 84%
inhibition ([2]; read-out: % Inhibition 1): 3%
inhibition ([2]; read-out: % Inhibition 2): -3%
inhibition ([2]; read-out: % Inhibition Avg): 0%
inhibition ([3]; read-out: % Inhibition 1): 68%
inhibition ([3]; read-out: % Inhibition 2): 70%
inhibition ([3]; read-out: % Inhibition Avg): 69%
